The text below walks through data of US4895842A, “Phenylalanine derivative and proteinase inhibitor” (Shosuke Okamoto, priority 1985, dated 1990).

Counter-ions that a name gives are not always drawn. Like-named read-outs stand apart in the source and are kept apart here. Bounds are passed on as bounds.

Assay [1] has as its target T1, bovine thrombin (Bos taurus, UniProt P00735). Description: Antithrombin activity: inhibition of fibrin formation from fibrinogen. In kind it is biochemical. The protocol: (i) Determination of inhibition activity against fibrin formation
An inhibitor sample is dissolved in a 0.18M borate-physiological salt buffer solution (pH=7.4) to make the total volume to 500 μl. To this solution, 400 μl of a 0.2% bovine fibrinogen solution and 100 μl of a 4 unit/ml bovine thrombin solution are added at a temperature of 37° C. in a constant temperature bath. Thus, a coagulation time is determined. The inhibitor concentration I50 (μmol), at which the coagulation time obtained in the absence of the inhibitor is extended twice, is determined.

For another assay, the target named is human plasma kallikrein (Homo sapiens, UniProt P03952). Nature of the assay: Anti-plasma kallikrein activity: inhibition of S-2302 decomposition. Conditions: S-2302 substrate, read-out: Plasma Kallikrein S-2302 (I50). Format: biochemical.
A further assay has as its target T2, bovine trypsin (Bos taurus, UniProt P00760).
T2 sequence (P00760 24-246): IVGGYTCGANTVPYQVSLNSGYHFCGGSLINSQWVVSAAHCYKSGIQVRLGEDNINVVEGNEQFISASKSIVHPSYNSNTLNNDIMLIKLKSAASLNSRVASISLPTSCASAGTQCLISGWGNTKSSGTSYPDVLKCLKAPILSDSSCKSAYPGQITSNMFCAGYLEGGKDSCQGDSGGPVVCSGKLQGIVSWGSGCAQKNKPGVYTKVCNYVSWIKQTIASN
Description: Antitrypsin activity: inhibition of S-2238 decomposition. Format: biochemical. Conditions: S-2238 substrate, read-out: Trypsin S-2238 (I50).

Assay [2] concerns the target T1, bovine thrombin. Nature of the assay: Antithrombin activity: inhibition of S-2238 decomposition. In kind it is biochemical. Conditions: S-2238 substrate, read-out: Thrombin S-2238 (I50). The protocol:
(ii) Determination of inhibition activity for S-2238 decomposition
An inhibitor sample is dissolved in a 0.05M Tris-hydrochloric acid buffer solution (pH=8.3) to make a total volume of 400 μl. To this solution, 50 μl of a 0.2 mM S-2238 solution is added and the mixture is incubated at a temperature of 37° C. for 5 minutes in a constant temperature bath. Then, 50 μl of a 0.2 unit/ml bovine thrombin solution is added thereto and the absorbance, at 405 nm, of the p-nitroaniline formed per minute is determined at a temperature of 37° C. by using the so-called initial velocity method. Thus, the concentration I50 (μmol) of the inhibitor sample at which the absorbance is one half (i.e., 1/2) of that obtained in the absence of the inhibitor sample, is determined.

In assay [3] the target is T3, human plasmin (Homo sapiens, UniProt P00747). Description: Antiplasmin activity: inhibition of fibrin decomposition. In kind it is biochemical. Conditions: Table 2; concentration at which fibrin dissolution time is extended twice, pH 7.4, 37° C.; read-out: Plasmin Fibrin (I50). The method, then: (i) Determination of inhibition activity for fibrin decomposition
An inhibitor sample is dissolved in a 0.18M borate-physiological salt buffer solution (pH=7.4) to make the total volume to 600 μl. To this buffer solution, 200 μl of a 0.2% bovine fibrinogen, 100 μl of a 0.3 casein unit/ml human plasmin solution, and 100 μl of a 50 unit/ml bovine thrombin solution, all dissolved in the above-mentioned buffer, are added at a temperature of 37° C. in a constant temperature bath. Then, the dissolution time of the fibrin mass formed above is determined.

Another assay concerns the target human urokinase (Homo sapiens, UniProt P00749). Description: biochemical. Conditions: S-2444 substrate, read-out: Urokinase S-2444 (I50). The method, then: Determination of inhibition activity for S-2444 decomposition
An inhibitor sample is dissolved in a 0.05M Tris-hydrochloric acid buffer solution (pH=8.8) to make the total volume to 400 μl. To this solution, 50 μl of a 1 mM S-2444 solution is added and the mixture is incubated at a temperature of 37° C. for 5 minutes in a constant temperature bath. Then, 50 μl of a 500 unit/ml human urokinase is added and the mixture is incubated at a temperature of 37° C. for 5 minutes. Thereafter, 50 μl of 50% acetic acid is added to terminate the reaction. The absorbance of the p-nitroaniline formed in the reaction mixture is measured at 405 nm. Thus, the concentration I50 (μmol) of the inhibitor sample, at which the absorbance is one half (i.e., 1/2) of that obtained in the absence of the inhibitor sample, is determined.

For assay [4], the target named is T3, human plasmin. Nature of the assay: biochemical. Particulars: read-out: Plasmin S-2251 (I50). The method, then: An inhibitor sample is dissolved in a 0.05M Tris-hydrochloric acid buffer solution (pH=7.4) to make the total volume of 400 μl. […] Then, 50 μl of a 0.2 casein unit/ml human plasmin is added and the mixture is incubated at a temperature of 37° C. for 4 minutes. Thereafter, the reaction is stopped by adding 50 μl of 50% acetic acid.
Thus, the concentration I50 (μmol) of the inhibitor sample, at which the absorbance is one half (i.e., 1/2) of that obtained in the absence of the inhibitor, is determined.

Chain of human plasma kallikrein (P03952 391-638 limits assumed): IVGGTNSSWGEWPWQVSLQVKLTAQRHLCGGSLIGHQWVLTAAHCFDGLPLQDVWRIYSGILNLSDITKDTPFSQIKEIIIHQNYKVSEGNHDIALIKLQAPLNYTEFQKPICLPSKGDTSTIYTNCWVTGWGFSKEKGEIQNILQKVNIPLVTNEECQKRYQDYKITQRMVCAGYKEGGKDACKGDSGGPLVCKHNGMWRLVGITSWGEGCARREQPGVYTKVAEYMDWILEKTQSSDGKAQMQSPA
Chain of human plasma kallikrein (P03952 20-390 partner limits assumed): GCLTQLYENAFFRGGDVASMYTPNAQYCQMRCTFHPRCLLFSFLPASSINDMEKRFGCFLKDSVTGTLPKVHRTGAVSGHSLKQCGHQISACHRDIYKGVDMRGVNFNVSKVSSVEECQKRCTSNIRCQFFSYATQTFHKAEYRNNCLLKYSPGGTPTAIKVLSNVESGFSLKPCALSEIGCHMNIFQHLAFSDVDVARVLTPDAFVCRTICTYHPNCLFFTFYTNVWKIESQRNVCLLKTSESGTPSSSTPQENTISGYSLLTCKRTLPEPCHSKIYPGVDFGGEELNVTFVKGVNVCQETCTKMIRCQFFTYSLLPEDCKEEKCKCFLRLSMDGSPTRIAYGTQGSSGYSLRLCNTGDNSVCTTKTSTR
T3 sequence (P00747 581-810 limits assumed): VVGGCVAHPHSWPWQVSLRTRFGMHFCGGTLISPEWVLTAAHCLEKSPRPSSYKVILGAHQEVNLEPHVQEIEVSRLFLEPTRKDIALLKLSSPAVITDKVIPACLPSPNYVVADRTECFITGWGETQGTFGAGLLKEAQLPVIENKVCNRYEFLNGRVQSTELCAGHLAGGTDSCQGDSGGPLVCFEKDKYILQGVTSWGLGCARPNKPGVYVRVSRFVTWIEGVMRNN
T3 sequence (P00747 97-580 partner limits assumed): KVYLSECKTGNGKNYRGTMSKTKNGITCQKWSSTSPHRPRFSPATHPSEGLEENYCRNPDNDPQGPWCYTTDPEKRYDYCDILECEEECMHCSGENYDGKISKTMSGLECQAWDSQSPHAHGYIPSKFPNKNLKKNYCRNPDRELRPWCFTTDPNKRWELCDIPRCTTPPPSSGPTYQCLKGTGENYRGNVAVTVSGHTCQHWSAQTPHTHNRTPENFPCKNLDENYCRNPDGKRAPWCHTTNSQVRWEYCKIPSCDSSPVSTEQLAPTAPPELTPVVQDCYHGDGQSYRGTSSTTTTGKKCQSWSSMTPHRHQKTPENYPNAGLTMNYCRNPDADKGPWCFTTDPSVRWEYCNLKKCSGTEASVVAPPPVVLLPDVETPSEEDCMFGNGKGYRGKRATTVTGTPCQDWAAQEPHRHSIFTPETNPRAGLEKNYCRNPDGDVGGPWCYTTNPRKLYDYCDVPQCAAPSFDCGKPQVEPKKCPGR
Description for bovine trypsin: Determination of inhibition activity against S-2238 decomposition
An inhibitor sample is dissolved in a 0.05M Tris-imidazole buffer solution (pH=8.1) and 125 μl of a 1 mM S-2238 solution is added to make the total volume to 1.20 ml. The mixture is incubated at a temperature of 37° C. for 5 minutes in a constant temperature bath. To this mixture, 0.05 ml of bovine trypsin is added and the absorbance, at 405 nm, of the p-nitroaniline formed per minute is determined at a temperature of 37° C. by using the so-called initial velocity method. Thus, the concentration I50 (μmol) of the inhibitor sample, at which the absorbance is one half (i.e., 1/2) of that obtained in the absence of the inhibitor sample, is determined.

Turning to `NC[C@H]1CC[C@H](C(=O)N[C@@H](Cc2ccccc2)C(=O)Nc2ccc(C(=O)c3ccccc3)cc2)CC1` [Compound No. 1], the IC50 against bovine thrombin [1] was more than 50 µM; at human plasma kallikrein (Table 2, pH 7.8, 37° C.), 1.9 µM; on bovine trypsin (Table 2, pH 8.1, 37° C.), 0.3 µM; at bovine thrombin [2] (Table 2, pH 8.3, 37° C.), more than 100 µM; at human plasmin [3], 40 µM; at human urokinase (Table 2, pH 8.8, 37° C.), 11 µM. Also, at human plasmin [4], the IC50 came to 27 µM.
In the case of `CC(=O)c1ccc(NC(=O)[C@H](Cc2ccc(OCc3ccccc3)cc2)NC(=O)[C@H]2CC[C@H](CN)CC2)cc1` [Compound No. 3, N-(trans-4-aminomethylcyclohexylcarbonyl)-4-benzyloxy-L-phenylalanine 4-acetylanilide], the IC50 was more than 100 µM at bovine thrombin [1]; 0.63 µM at human plasma kallikrein (Table 2, pH 7.8, 37° C.); 0.77 µM on bovine trypsin (Table 2, pH 8.1, 37° C.); more than 200 µM at bovine thrombin [2] (Table 2, pH 8.3, 37° C.); 0.4 µM on human plasmin [3]; 31 µM at human urokinase (Table 2, pH 8.8, 37° C.). Also, on human plasmin [4], the IC50 worked out at 1.8 µM.
As for `COc1ccc(C[C@H](NC(=O)[C@H]2CC[C@H](CN)CC2)C(=O)Nc2ccc(C(C)=O)cc2)cc1` [Compound No. 6, N-(trans-4-aminomethylcyclohexylcarbonyl)-4-methoxy-L-phenylalanine 4-acetylanilide], the IC50 is more than 500 µM at bovine thrombin [1]; 2 µM at human plasma kallikrein (Table 2, pH 7.8, 37° C.); 1.1 µM on bovine trypsin (Table 2, pH 8.1, 37° C.); 230 µM on bovine thrombin [2] (Table 2, pH 8.3, 37° C.); 4.6 µM on human plasmin [3]; 42 µM at human urokinase (Table 2, pH 8.8, 37° C.). Further, the IC50 at human plasmin [4] was 1.3 µM.
Take `NC[C@H]1CC[C@H](C(=O)N[C@@H](Cc2ccc(OCc3ccccc3)cc2)C(=O)Nc2ccc(S(N)(=O)=O)cc2)CC1` [Compound No. 47, N-(trans-4-aminomethylcyclohexylcarbonyl)-4-benzyloxy-L-phenylalanine 4-sulfamoylanilide hydrochloride]: the IC50 against bovine thrombin [1] was more than 200 µM; at human plasma kallikrein (Table 2, pH 7.8, 37° C.), 4.5 µM; at bovine trypsin (Table 2, pH 8.1, 37° C.), 7.5 µM; on bovine thrombin [2] (Table 2, pH 8.3, 37° C.), more than 400 µM; on human plasmin [3] it was 1 µM; at human urokinase (Table 2, pH 8.8, 37° C.), 130 µM. For the same compound, the IC50 on human plasmin [4] amounted to 8.9 µM.
Consider `NC[C@H]1CC[C@H](C(=O)N[C@@H](Cc2ccc(OCc3ccccc3)cc2)C(=O)Nc2ccnc(Cl)c2)CC1` [Compound No. 59, N-(trans-4-aminomethylcyclohexylcarbonyl)-4-benzyloxy-L-phenylalanine 4-(2-chloro)pyridylamide hydrochloride], for which the IC50 against bovine thrombin [1] is more than 250 µM; at human plasma kallikrein (Table 2, pH 7.8, 37° C.), 0.42 µM; at bovine trypsin (Table 2, pH 8.1, 37° C.), 0.67 µM; at bovine thrombin [2] (Table 2, pH 8.3, 37° C.) it was more than 125 µM; at human plasmin [3], 0.18 µM; on human urokinase (Table 2, pH 8.8, 37° C.), 40 µM. The IC50 at human plasmin [4] was determined as 1.4 µM.
Take `CC1CCC(NC(=O)[C@H](Cc2ccc(OCc3ccccc3)cc2)NC(=O)c2ccc(CN)cc2)CC1C` (stereo partly drawn) [Compound No. 80, N-(4-aminomethylbenzoyl)-4-benzyloxy-L-phenylalanine 3,4-dimethylcyclohexylamide hydrochloride]: the IC50 against bovine thrombin [1] is more than 50 µM; at human plasma kallikrein (Table 2, pH 7.8, 37° C.) it was 17 µM; on bovine trypsin (Table 2, pH 8.1, 37° C.), 0.45 µM; on bovine thrombin [2] (Table 2, pH 8.3, 37° C.), more than 100 µM; on human plasmin [3], 0.33 µM; at human urokinase (Table 2, pH 8.8, 37° C.) it was more than 400 µM. Moreover, the IC50 on human plasmin [4] stood at 1.1 µM.
With `CC(=O)c1ccc(NC(=O)[C@H](Cc2ccc(Oc3ccc([N+](=O)[O-])cc3)cc2)NC(=O)[C@H]2CC[C@H](CN)CC2)cc1` [Compound No. 95, N-(trans-4-aminomethylcyclohexylcarbonyl)-4-(4-nitrophenoxy)-L-phenylalanine 4-acetylanilide hydrochloride], the IC50 at bovine thrombin [1] was more than 100 µM; on human plasma kallikrein (Table 2, pH 7.8, 37° C.), 0.14 µM; on bovine trypsin (Table 2, pH 8.1, 37° C.), 1.5 µM; at bovine thrombin [2] (Table 2, pH 8.3, 37° C.), more than 400 µM; at human plasmin [3], 0.27 µM; on human urokinase (Table 2, pH 8.8, 37° C.) it was 8 µM. The IC50 at human plasmin [4] is 0.63 µM.
Turning to `NCc1ccc(C(=O)N[C@@H](Cc2ccc(OCc3ccccc3)cc2)C(=O)NCc2ccncc2)cc1` [Compound No. 96, N-(4-aminomethylbenzoyl)-4-benzyloxy-L-phenylalanine 4-picolylamide dihydrochloride], the IC50 was more than 250 µM against bovine thrombin [1]; 350 µM on human plasma kallikrein (Table 2, pH 7.8, 37° C.); 22 µM at bovine trypsin (Table 2, pH 8.1, 37° C.); more than 100 µM on bovine thrombin [2] (Table 2, pH 8.3, 37° C.); 18 µM at human plasmin [3]; more than 500 µM on human urokinase (Table 2, pH 8.8, 37° C.). In addition, the IC50 at human plasmin [4] turned out to be 29 µM.
In the case of `CC(=O)c1ccc(NC(=O)[C@H](Cc2ccc(Oc3ccc([N+](=O)[O-])cn3)cc2)NC(=O)[C@H]2CC[C@H](CN)CC2)cc1` [Compound No. 121, N-(trans-4-aminomethylcyclohexylcarbonyl)-4-(5-nitro-2-pyridyloxy)-L-phenylalanine 4-acetylanilide hydrochloride], the IC50 against bovine thrombin [1] was more than 200 µM; at human plasma kallikrein (Table 2, pH 7.8, 37° C.) it was 0.18 µM; at bovine trypsin (Table 2, pH 8.1, 37° C.) it was 0.24 µM; on bovine thrombin [2] (Table 2, pH 8.3, 37° C.) it was 280 µM; at human plasmin [3] it was 0.43 µM; on human urokinase (Table 2, pH 8.8, 37° C.), 19 µM. In addition, at human plasmin [4], the IC50 worked out at 0.95 µM.
With `CC(=O)c1ccc(NC(=O)[C@H](Cc2ccc(OCc3cccc(C#N)c3)cc2)NC(=O)[C@H]2CC[C@H](CN)CC2)cc1` [Compound No. 122, N-(trans-4-aminomethylcyclohexylcarbonyl)-4-(3-cyanobenzyloxy)-L-phenylalanine 4-acetylanilide hydrochloride], the IC50 against bovine thrombin [1] is more than 50 µM; at human plasma kallikrein (Table 2, pH 7.8, 37° C.), 0.43 µM; at bovine trypsin (Table 2, pH 8.1, 37° C.) it was 1 µM; on bovine thrombin [2] (Table 2, pH 8.3, 37° C.) it was more than 200 µM; at human plasmin [3] it was 0.31 µM; on human urokinase (Table 2, pH 8.8, 37° C.) it was 34 µM. In addition, on human plasmin [4], the IC50 turned out to be 1.1 µM.
On to `NC[C@H]1CC[C@H](C(=O)O)CC1` [Table 3 Compound No. 1, tranexamic acid, reference compound], for which the IC50 on bovine thrombin [1] (Table 4, comparative compounds of Table 3, coagulation time extended twice, read-out: Thrombin Fibrinogen (I50)) is more than 1000 µM; on human plasma kallikrein (Table 4, comparative compounds of Table 3, pH 7.8), more than 1000 µM; at bovine trypsin (Table 4, comparative compounds of Table 3, pH 8.1) it was more than 1000 µM; at bovine thrombin [2] (Table 4, comparative compounds of Table 3, pH 8.3), more than 1000 µM; on human urokinase (Table 4, comparative compounds of Table 3, pH 8.8), more than 1000 µM.
Regarding `NC[C@H]1CC[C@H](C(=O)N[C@@H](Cc2ccc(OCc3ccccc3)cc2)C(=O)Nc2ccncc2)CC1` [compound 40], the IC50 was more than 500 µM against bovine thrombin [1]; 1.8 µM at bovine trypsin (Table 2, pH 8.1, 37° C.); more than 1000 µM on bovine thrombin [2] (Table 2, pH 8.3, 37° C.); 0.68 µM on human plasmin [3].
